Results reported in BigSolDB 2.1.

CN(C)NC(=O)CCC(=O)O
solubility (mole fraction)
Conditions	283.15 K	288.15 K	293.15 K	298.15 K	303.15 K	308.15 K	313.15 K	318.15 K	323.15 K
in 2-butoxyethanol	0.000247	0.000346	0.000471	0.000632	0.000905	0.00126	0.00162	0.00213	0.00278
in 2-ethoxyethanol	0.00176	0.00228	0.00291	0.00382	0.00492	0.00621	0.00767	0.00954	0.012
in 2-methoxyethanol	0.00398	0.00519	0.00634	0.00784	0.0096	0.0116	0.014	0.0169	0.0203
in 2-propoxyethanol	0.000405	0.000617	0.000794	0.00108	0.00144	0.00184	0.00233	0.00304	0.00393
in DMF	0.0207	0.0245	0.0293	0.0329	0.0388	0.0449	0.0503	0.0568	0.0645
in NMP	0.037	0.042	0.0481	0.0552	0.063	0.0714	0.0813	0.09	0.1
in acetonitrile	0.000172	0.000226	0.000296	0.000386	0.000503	0.000653	0.000846	0.00109	0.00141
in ethanol	0.00275	0.00354	0.00437	0.00551	0.0069	0.00848	0.0102	0.0128	0.0164
in isopropanol	0.000326	0.00048	0.000752	0.0011	0.00159	0.0022	0.00302	0.00433	0.00579
in methanol	0.00823	0.0097	0.0116	0.014	0.0167	0.0196	0.0227	0.026	0.0301
in n-pentanol	0.000149	0.000191	0.00026	0.000344	0.000477	0.000634	0.000821	0.00109	0.00145
in n-propanol	0.000944	0.00121	0.00161	0.00217	0.00285	0.00367	0.00471	0.00615	0.00768
